Data on one substance can be found in US11473151B2, “Diagnostic and therapeutic methods for cancer” (Genentech, Inc., priority 2017, dated 2022).

The test concerns UC, NSCLC, TNBC and PDAC patients. The test can be described thus: Validation of the 6-gene signature (6TBRS) in atezolizumab clinical trials (IMvigor210, POPLAR). The format is in vivo, human. The following applies: patients with high expression of the 6-gene signature. From the text:
We developed a pan-tissue 6-gene F-TBRS based on the 19-gene Pan-F-TBRS data described above but further prioritizing TGF-β pathway components (TGFB1 and TGFBR2) and targets (CTGF, ADAM19, ACTA2, and COMP). To validate the predictive value of the 6-gene signature, we calculated hazard ratios for prognostic effects (using univariate continuous Cox proportional hazards regression models) and predictive effects, and calculated hazard ratios for predictive effects (using the log-rank test with median cutoff) in atezolizumab clinical trials. […] See, e.g., FIGS. 6B and 6C, which show data from IMvigor210 and the POPLAR study (NCT01903993), respectively.

“Also recorded” adds a separate entry of the source.

“atezolizumab: anti-PD-L1 antibody (Genentech), CAS Registry Number 1422185-06-5, also known as MPDL3280A”: the response/benefit from monotherapy result is “lack of benefit; also recorded: lack of response”. Moreover, the response/benefit from monotherapy result (listed as atezolimumab) is on record as “lack of response”.
